Experimental data from patent US8304419B2, “Chemical compounds” (priority 2007, dated 2012).
Counter-ions that a name gives are not always drawn.

Test system: HIV wild type (WTRVA)
Assay: HeLa cell assay, wild type virus (WTRVA)
Type: cell-based, HIV-1
Design: scale not given here
Conditions: HeLa-CD4-LTR-β-gal cells, wild type virus; trifluoroacetate; read-out: WTRVA activity level

Compound N#Cc1cc(Cl)cc(Oc2c(Cl)ccc(CNC(=O)c3[nH]c4ccccc4c3Br)c2F)c1 [Example 54, 3-bromo-N-({4-chloro-3-[(3-chloro-5-cyanophenyl)oxy]-2-fluorophenyl}methyl)-1H-indole-2-carboxamide trifluoroacetate] has an IC50 of under 10 nM.

Same assay, conditions: Human immunodeficiency virus 1, HeLa, HeLa cell assay; read-out: IC50 against WTRVA

N#Cc1cc(CN2CCOCC2)cc(Oc2c(Cl)ccc(CNC(=O)c3[nH]cnc3Cl)c2F)c1 [Example 383, 4-chloro-N-[(4-chloro-3-{[3-cyano-5-(4-morpholinylmethyl)phenyl]oxy}-2-fluorophenyl)methyl]-1H-imidazole-5-carboxamide] and N#Cc1cc(CC2CC2)cc(Oc2c(Cl)ccc(CNC(=O)c3[nH]cnc3Cl)c2F)c1 [Example 157, 4-chloro-N-[(4-chloro-3-{[3-cyano-5-(cyclopropylmethyl)phenyl]oxy}-2-fluorophenyl)methyl]-1H-imidazole-5-carboxamide] cannot be ordered by IC50: under 10 nM for the first, under 10 nM for the second.

N#Cc1cc(Oc2c(Cl)ccc(CNC(=O)c3[nH]c(N)nc3Cl)c2F)cc(C(F)F)c1 [Example 327, 2-amino-4-chloro-N-[(4-chloro-3-{[3-cyano-5-(difluoromethyl)phenyl]oxy}-2-fluorophenyl)methyl]-1H-imidazole-5-carboxamide trifluoroacetate] and C=CCc1cc(C#N)cc(Oc2c(Cl)ccc(CNC(=O)c3[nH]c(C)nc3Cl)c2F)c1 [Example 248, 4-chloro-N-[(4-chloro-3-{[3-cyano-5-(2-propen-1-yl)phenyl]oxy}-2-fluorophenyl)methyl]-2-methyl-1H-imidazole-5-carboxamide trifluoroacetate] cannot be ordered by IC50: under 10 nM for the first, under 10 nM for the second.

N#Cc1cc(Cl)cc(Oc2c(Cl)ccc(CNC(=O)c3[nH]cnc3Br)c2F)c1 [Example 133, 4-bromo-N-({4-chloro-3-[(3-chloro-5-cyanophenyl)oxy]-2-fluorophenyl}methyl)-1H-imidazole-5-carboxamide trifluoroacetate] and Cc1cc(C#N)cc(Oc2c(Cl)ccc(CNC(=O)c3[nH]cnc3Cl)c2F)c1 [Example 145, 4-chloro-N-({4-chloro-3-[(3-cyano-5-methylphenyl)oxy]-2-fluorophenyl}methyl)-1H-imidazole-5-carboxamide] cannot be ordered by IC50: under 10 nM for the first, under 10 nM for the second.

N#C/C=C/c1cc(Cl)cc(Oc2c(Cl)ccc(CNC(=O)c3[nH]cnc3Cl)c2F)c1 [Example 291, 4-chloro-N-{[4-chloro-3-({3-chloro-5-[(E)-2-cyanoethenyl]phenyl}oxy)-2-fluorophenyl]methyl}-1H-imidazole-5-carboxamide] and Cc1nc(Cl)c(C(=O)NCc2ccc(Cl)c(Oc3cc(Cl)cc(C#N)c3Cl)c2F)[nH]1 [Example 306, 4-chloro-N-({4-chloro-3-[(2,5-dichloro-3-cyanophenyl)oxy]-2-fluorophenyl}methyl)-2-methyl-1H-imidazole-5-carboxamide trifluoroacetate] cannot be ordered by IC50: under 10 nM for the first, under 10 nM for the second.

Same assay, conditions: Human immunodeficiency virus 1, HeLa, HeLa-CD4-LTR-β-gal cells, wild type virus; read-out: WTRVA activity level

N#Cc1cc(Cl)cc(Oc2c(Cl)ccc(CNC(=O)c3cc4cc(Br)ccc4[nH]3)c2F)c1 [Example 29, 5-bromo-N-({4-chloro-3-[(3-chloro-5-cyanophenyl)oxy]-2-fluorophenyl}methyl)-1H-indole-2-carboxamide] and N#Cc1cc(Cl)cc(Oc2c(Cl)ccc(CNC(=O)c3cc4cc(Cl)ccc4[nH]3)c2F)c1 [Example 109, 5-chloro-N-({4-chloro-3-[(3-chloro-5-cyanophenyl)oxy]-2-fluorophenyl}methyl)-1H-indole-2-carboxamide] fall in the same range of IC50: 10 to 1000 nM for the first, 10 to 1000 nM for the second.

Compared with N#Cc1cc(Cl)cc(Oc2c(Cl)ccc(CNC(=O)c3[nH]c4cc(Cl)ccc4c3Cl)c2F)c1 [Example 55, 3,6-dichloro-N-({4-chloro-3-[(3-chloro-5-cyanophenyl)oxy]-2-fluorophenyl}methyl)-1H-indole-2-carboxamide trifluoroacetate], N#Cc1cc(Cl)cc(Oc2c(Cl)ccc(CNC(=O)c3[nH]c4cc(O)ccc4c3Br)c2F)c1 [Example 61, 3-bromo-N-({4-chloro-3-[(3-chloro-5-cyanophenyl)oxy]-2-fluorophenyl}methyl)-6-hydroxy-1H-indole-2-carboxamide trifluoroacetate] is lower in IC50: 10 to 1000 nM for the first, under 10 nM for the second.

First: N#Cc1cc(Cl)cc(Oc2c(Cl)ccc(CNC(=O)c3cc4cc(NC(=O)CCN)ccc4[nH]3)c2F)c1 [Example 116, 5-(β-alanylamino)-N-({4-chloro-3-[(3-chloro-5-cyanophenyl)oxy]-2-fluorophenyl}methyl)-1H-indole-2-carboxamide]
Second: N#Cc1cc(Cl)cc(Oc2c(Cl)ccc(CNC(=O)c3cc4cc(F)ccc4[nH]3)c2F)c1 [Example 41, N-({4-chloro-3-[(3-chloro-5-cyanophenyl)oxy]-2-fluorophenyl}methyl)-5-fluoro-1H-indole-2-carboxamide]
The IC50 of the first is lower: under 10 nM for the first, 10 to 1000 nM for the second. The first is the more potent here.

Compared with Cc1cccc2cc(C(=O)NCc3ccc(Cl)c(Oc4cc(Cl)cc(C#N)c4)c3F)[nH]c12 [Example 108, N-({4-chloro-3-[(3-chloro-5-cyanophenyl)oxy]-2-fluorophenyl}methyl)-7-methyl-1H-indole-2-carboxamide], N#Cc1cc(Cl)cc(Oc2c(Cl)ccc(CNC(=O)c3cc4ccccc4[nH]3)c2F)c1 [Example 28, N-({4-chloro-3-[(3-chloro-5-cyanophenyl)oxy]-2-fluorophenyl}methyl)-1H-indole-2-carboxamide] is lower in IC50: 10 to 1000 nM for the first, under 10 nM for the second.

N#Cc1cc(Cl)cc(Oc2c(Cl)ccc(CNC(=O)c3[nH]cnc3Br)c2F)c1 [Example 133, 4-bromo-N-({4-chloro-3-[(3-chloro-5-cyanophenyl)oxy]-2-fluorophenyl}methyl)-1H-imidazole-5-carboxamide trifluoroacetate] and N#Cc1cc(Cl)cc(Oc2c(Cl)ccc(CNC(=O)c3[nH]cnc3[N+](=O)[O-])c2F)c1 [Example 68, N-({4-chloro-3-[(3-chloro-5-cyanophenyl)oxy]-2-fluorophenyl}methyl)-4-nitro-1H-imidazole-5-carboxamide trifluoroacetate] cannot be ordered by IC50: under 10 nM for the first, under 10 nM for the second.

N#Cc1cc(Cl)cc(Oc2c(Cl)ccc(CNC(=O)c3[nH]c(C4CC4)nc3Cl)c2F)c1 [Example 136, 4-chloro-N-({4-chloro-3-[(3-chloro-5-cyanophenyl)oxy]-2-fluorophenyl}methyl)-2-cyclopropyl-1H-imidazole-5-carboxamide trifluoroacetate] and N#Cc1cc(Cl)cc(Oc2c(Cl)ccc(CNC(=O)c3nc4ccccc4[nH]3)c2F)c1 [Example 35, N-({4-chloro-3-[(3-chloro-5-cyanophenyl)oxy]-2-fluorophenyl}methyl)-1H-benzimidazole-2-carboxamide] cannot be ordered by IC50: under 10 nM for the first, under 10 nM for the second.

First: CN1CCCC1CCOc1ccc2[nH]c(C(=O)NCc3ccc(Cl)c(Oc4cc(Cl)cc(C#N)c4)c3F)cc2c1 (stereo not drawn) [Example 104, N-({4-chloro-3-[(3-chloro-5-cyanophenyl)oxy]-2-fluorophenyl}methyl)-5-{[2-(1-methyl-2-pyrrolidinyl)ethyl]oxy}-1H-indole-2-carboxamide]
Second: N#Cc1cc(Cl)cc(Oc2c(Cl)ccc(CNC(=O)c3cc4cc(N(CC5CC5)CC5CC5)ccc4[nH]3)c2F)c1 [Example 127, 5-[bis(cyclopropylmethyl)amino]-N-({4-chloro-3-[(3-chloro-5-cyanophenyl)oxy]-2-fluorophenyl}methyl)-1H-indole-2-carboxamide]
The IC50 of the first is lower: under 10 nM for the first, 10 to 1000 nM for the second.

First: CN(Cc1ccc(Cl)c(Oc2cc(Cl)cc(C#N)c2)c1F)C(=O)c1ncc[nH]1 [Example 130, N-({4-chloro-3-[(3-chloro-5-cyanophenyl)oxy]-2-fluorophenyl}methyl)-N-methyl-1H-imidazole-2-carboxamide]
Second: Cn1cnc(C(=O)NCc2ccc(Cl)c(Oc3cc(Cl)cc(C#N)c3)c2F)c1 [Example 64, N-({4-chloro-3-[(3-chloro-5-cyanophenyl)oxy]-2-fluorophenyl}methyl)-1-methyl-1H-imidazole-4-carboxamide trifluoroacetate]
The IC50 of the first is lower: under 10 nM for the first, 10 to 1000 nM for the second. The first is the more potent here.

COc1ccc2c(C(=O)NCc3ccc(Cl)c(Oc4cc(Cl)cc(C#N)c4)c3F)c[nH]c2c1 [Example 18, N-({4-chloro-3-[(3-chloro-5-cyanophenyl)oxy]-2-fluorophenyl}methyl)-6-(methyloxy)-1H-indole-3-carboxamide] and COc1ccc2[nH]c(C(=O)NCc3ccc(Cl)c(Oc4cc(Cl)cc(C#N)c4)c3F)c(NC(C)=O)c2c1 [Example 56, 3-(acetylamino)-N-({4-chloro-3-[(3-chloro-5-cyanophenyl)oxy]-2-fluorophenyl}methyl)-5-(methyloxy)-1H-indole-2-carboxamide trifluoroacetate] fall in the same range of IC50: 10 to 1000 nM for the first, 10 to 1000 nM for the second.

First: Cc1nnsc1C(=O)NCc1ccc(Cl)c(Oc2cc(Cl)cc(C#N)c2)c1F [Example 91, N-({4-chloro-3-[(3-chloro-5-cyanophenyl)oxy]-2-fluorophenyl}methyl)-4-methyl-1,2,3-thiadiazole-5-carboxamide]
Second: Cn1cncc1C(=O)NCc1ccc(Cl)c(Oc2cc(Cl)cc(C#N)c2)c1F [Example 67, N-({4-chloro-3-[(3-chloro-5-cyanophenyl)oxy]-2-fluorophenyl}methyl)-1-methyl-1H-imidazole-5-carboxamide trifluoroacetate]
The IC50 of the first is lower: under 10 nM for the first, 10 to 1000 nM for the second. The first is the more potent here.

N#Cc1cc(Cl)cc(Oc2c(Cl)ccc(CNC(=O)c3cc4ccccc4o3)c2F)c1 [Example 47, N-({4-chloro-3-[(3-chloro-5-cyanophenyl)oxy]-2-fluorophenyl}methyl)-1-benzofuran-2-carboxamide trifluoroacetate] and N#Cc1cc(Cl)cc(Oc2c(Cl)ccc(CNC(=O)c3ccncc3)c2F)c1 [Example 89, N-({4-chloro-3-[(3-chloro-5-cyanophenyl)oxy]-2-fluorophenyl}methyl)-4-pyridinecarboxamide trifluoroacetate] fall in the same range of IC50: 10 to 1000 nM for the first, 10 to 1000 nM for the second.

CCN(CC)S(=O)(=O)c1c[nH]c(C(=O)NCc2ccc(Cl)c(Oc3cc(Cl)cc(C#N)c3)c2F)c1 [Example 76, N-({4-chloro-3-[(3-chloro-5-cyanophenyl)oxy]-2-fluorophenyl}methyl)-4-[(diethylamino)sulfonyl]-1H-pyrrole-2-carboxamide trifluoroacetate] and N#Cc1cc(Cl)cc(Oc2c(Cl)ccc(CNC(=O)c3cccnc3)c2F)c1 [Example 94, N-({4-chloro-3-[(3-chloro-5-cyanophenyl)oxy]-2-fluorophenyl}methyl)-3-pyridinecarboxamide trifluoroacetate] fall in the same range of IC50: 10 to 1000 nM for the first, 10 to 1000 nM for the second.
